Test results taken from PMC5556071, “ATR inhibition facilitates targeting of leukemia dependence on convergent nucleotide biosynthetic pathways” (Nature Communications, 2017).
Several values for one entry are separate records, joined by “and”; a condition that tells them apart may be missing. Identical values can stand only once.

Test system: CEM cells
Assay: Non-targeted LC-MS metabolite profiling: percent [13C6]glucose labeling and relative metabolite levels
Assay type: cell-based, human
Details: CEM cells, 12 h following release from G1 arrest, replicates #1-#6
Description: To further investigate the functions of dCK and ATR at the G1/S transition in CEM cells, a non-targeted liquid chromatography mass spectrometry (LC-MS) assay was used to determine the utilization of labeled [^13C6]glucose and [^13C9,^15N3]deoxycytidine, the main substrates for de novo and salvage nucleotide biosynthesis, respectively. Of the 166 metabolites identified in CEM cells treated with VE-822 and/or dCKi, 105 metabolites found in all four treatment groups contained glucose-derived ^13C atoms. […] These metabolites included intermediates such as rUTP, rCTP and rCDP in the de novo dCTP biosynthesis (Fig. 1d). […] However, several deoxyribonucleotides, including dCTP, were below the limit of detection of the non-targeted LC-MS approach, raising the concern that the sensitivity of this assay is not sufficient to measure the contribution of the salvage pathway or the ratio of de novo and salvage biosynthesis to these pools. To address this problem, a newly developed targeted MS assay was developed (Fig. 1e and Supplementary Fig. 3). In this assay, samples containing either extracted dNTPs or hydrolyzed DNA from labeled cells are separated by LC for detection by a triple quadrupole mass spectrometer using multiple reaction monitoring (LC-MS/MS-MRM). The first (Q1) and third (Q3) quadrupoles function as mass filters, while the second (Q2) quadrupole serves as a collision chamber (Fig. 1e). For instance, to profile the biosynthetic composition of deoxycytidine (dC) derived from hydrolyzed DNA or dCTP, an intact, protonated dC ion is selected in Q1, followed by fragmentation of the glycosidic bond, which releases protonated cytosine in Q2, that is filtered in Q3 and detected to generate an ion chromatogram. The peak areas for the ion chromatograms of salvage [^13C9,^15N3]dC (red trace), de novo [^13C5]dC (black trace, from [^13C6]glucose) and unlabeled dC (gray trace) (Fig. 1e) are used to determine the relative contributions of the de novo and salvage routes both to dCTP pools and to DNA-incorporated dCTP.
Cells were transferred into RPMI-1640 without glucose and supplemented with 10% dialyzed FBS (Gibco) containing the following labeled substrates: precursors for de novo [U-^13C6]glucose (Sigma-Aldrich, 389374) at 11 mM; precursors for purine salvage [U-^13C10,^15N5]dA (Cambridge Isotopes, CIL 3896), [^15N5]dA (Cambridge Isotopes, NLM-3895) and [^15N5]dG (Cambridge Isotopes, NLM-3899) at 5 µM or as indicated; and precursors for pyrimidine salvage: [U-^13C9,^15N3]dC (Silantes, 124603602) and [U-^13C10,^15N2]dT (Cambridge Isotopes, CNLM-3902) at 5 µM and [^15N2]orotate (Cambridge Isotopes, NLM-1048) at indicated concentrations. The cells were incubated for 12 h or as indicated before sample collection and processing. […]
Non-targeted LC-MS metabolic assays. 1 x 10^6 cells were washed with ice-cold 150 mM ammonium acetate twice before adding 1 mL of ice-cold 80% methanol with 10 nM norvaline as an internal standard. After vigorous vortexing, samples were centrifuged at maximum speed, the aqueous layer was transferred to a glass vial and the metabolites were dried under vacuum. Metabolites were resuspended in 50 μL 70% acetonitrile (ACN) and 5 μL of this solution used for the mass spectrometer-based analysis. The analysis was performed on a Q Exactive (Thermo Scientific) in polarity-switching mode with positive voltage 4.0 kV and negative voltage 4.0 kV. The mass spectrometer was coupled to an UltiMate 3000RSLC (Thermo Scientific) UHPLC system. Mobile phase A was 5 mM ammonium acetate (NH4AcO), pH 9.9, B was acetonitrile and the separation achieved on a Luna […] NH2 100 A column (150 × 2.0 mm, Phenomenex). The flow was 200 μL/min, and the gradient ran from 15% A to 95% A in 18 min, followed by an isocratic step for 9 min and re-equilibration for 7 min. Metabolites were detected and quantified as area under the curve based on retention time and accurate mass (≤ 3 p.p.m.) using the TraceFinder 3.1 (Thermo Scientific). Relative amounts of […]

[1] = metabolite CDP (KEGG C00112), listed as V
[2] = metabolite CDP-EtA (KEGG C00570), listed as V
[3] = metabolite CMP (KEGG C00055), listed as V
[4] = metabolite CTP (KEGG C00063), listed as V
[5] = metabolite Choline (KEGG C00114), listed as V
[6] = metabolite Cinnamic acid (KEGG C00423), listed as V
[7] = metabolite Cit (KEGG C00158), listed as V
[8] = metabolite Citraconic acid (KEGG C02226), listed as V
[9] = metabolite Creatine (KEGG C00300), listed as V
[10] = metabolite Creatinine (KEGG C00791), listed as V
[11] = metabolite Cytosine (KEGG C00380), listed as V
[12] = metabolite DMG (KEGG C01026), listed as V
[13] = metabolite Dihydroorotate (KEGG C00337), listed as V
[14] = metabolite F16BP (KEGG C00354), listed as V
[15] = metabolite Folate (KEGG C00504), listed as V
[16] = metabolite Fru (KEGG C00095), listed as V
[17] = metabolite Fum (KEGG C00122), listed as V
[18] = metabolite G (KEGG C00387), listed as V
[19] = metabolite dG (KEGG C00330), listed as V
[20] = metabolite dTMP (KEGG C00364), listed as V

## CNCc1ccc(-c2cc(-c3nc(-c4ccc(S(=O)(=O)C(C)C)cc4)cnc3N)on2)cc1 [VE-822]
[1]
  Glucose labeling of CDP: 46.58% and 27.42% and 42.30% and 38.55% and 26.25% and 39.84%
  Relative level of CDP: 3.4 and 1.2 and 1.9 and 1.6 and 0.8 and 0.754
[2]
  Glucose labeling of CDP-EtA: 25.10% and 38.04% and 37.00% and 40.76% and 32.59% and 33.65%
  Relative level of CDP-EtA: 0.7 (3×) and 0.9 and 0.744 and 0.633
[3]
  Glucose labeling of CMP: 38.36% and 31.49% and 41.31% and 20.57% and 40.83% and 49.90%
  Relative level of CMP: 3.0 and 2.7 and 2.4 and 1.7 and 0.9 and 0.7
[4]
  Glucose labeling of CTP: 40.85% and 37.06% and 39.44% and 47.60% and 38.66% and 34.33%
  Relative level of CTP: 1.6 and 0.5 and 0.8 and 0.848 and 0.468 and 0.448
[5]
  Glucose labeling of Choline: 0.00248% (3×) and 0.00264% and 0.0024% and 0.00242%
  Relative level of Choline: 1.2 and 1.3 and 1.4 and 0.849 and 0.8 (2×)
[6]
  Glucose labeling of Cinnamic acid: 0.00% (5×) and 1.11e-14%
  Relative level of Cinnamic acid: 1.7 and 1.5 and 1.6 and 1.0 (2×) and 0.9
[7]
  Glucose labeling of Cit: 50.64% and 47.53% and 49.55% and 44.89% and 45.53% and 45.28%
  Relative level of Cit: 0.9 and 0.6 and 0.7 and 0.47 and 0.449 and 0.454
[8]
  Glucose labeling of Citraconic acid: 0.00% (5×) and -2.22e-14%
  Relative level of Citraconic acid: 1.1 (3×) and 1.6 and 0.8 and 1.0
Metabolite Citrulline (KEGG C00327)
  Glucose labeling of Citrulline: 0.18%
Metabolite Citrulline (KEGG C00327), listed as V
  Relative level of Citrulline: 0.5 and 1.2 (2×) and 2.5 and 0.3 and 0.335
[9]
  Glucose labeling of Creatine: 0.000881% and 0.000842% and 0.000971% and 0.000748% and 0.000833% and 0.000956%
  Relative level of Creatine: 1.0 and 1.1 (2×) and 0.8 and 0.9 and 0.852
[10]
  Glucose labeling of Creatinine: 0.000588% and 0.000811% and 0.000818% and 0.000809% and 0.000725% and 0.000748%
  Relative level of Creatinine: 1.0 (3×) and 1.1 and 1.2 and 0.848
Metabolite Cystathionine (KEGG C02291)
  Glucose labeling of Cystathionine: 0.26%
Metabolite Cystathionine (KEGG C02291), listed as V
  Relative level of Cystathionine: 1.0 and 0.182 and 1.1 and 0.2 and 0.4 and 0.251
[11]
  Glucose labeling of Cytosine: 0.00381% and 0.000394% and 0.000743% and 0.000956% and 0.000512% and 0.0321%
  Relative level of Cytosine: 1.4 and 1.7 and 3.0 and 5.5 and 1.6 and 0.9
Metabolite DHAP (KEGG C00111)
  Glucose labeling of DHAP: 100.00%
Metabolite DHAP (KEGG C00111), listed as V
  Relative level of DHAP: 5.8 and 0.3 and 1.3 and 1.2 and 0.2
[12]
  Glucose labeling of DMG: 0.0737% and 0.02% and 0.04% and 0.06% and 0.0145% and 0.05%
  Relative level of DMG: 0.7 and 1.3 and 1.0 (2×) and 0.527 and 0.9
[13]
  Glucose labeling of Dihydroorotate: 0.55% and 0.92% and 0.10% and 0.96% and 0.80% and 0.09%
  Relative level of Dihydroorotate: 0.9 and 0.7 and 0.8 and 0.754 and 0.5 and 0.468
[14]
  Glucose labeling of F16BP: 97.93% and 88.56% and 94.79% and 95.15% and 79.77% and 75.67%
  Relative level of F16BP: 9.1 and 1.1 and 2.4 and 2.6 and 0.552 and 0.456
[15]
  Glucose labeling of Folate: 0.00% (5×) and 100.00%
  Relative level of Folate: 0.546 and 1.0 and 0.5 and 0.4 and 0.9
[16]
  Glucose labeling of Fru: 58.79% and 68.43% and 78.80% and 67.26% and 65.64% and 42.97%
  Relative level of Fru: 3.7 and 3.5 and 2.9 and 1.6 and 1.8 and 2.4
[17]
  Glucose labeling of Fum: 15.89% and 14.12% and 10.85% and 10.48% and 12.71% and 7.86%
  Relative level of Fum: 1.3 and 0.8 (2×) and 1.1 and 0.565 and 0.5
[18]
  Glucose labeling of G: 0.55% (4×) and 100.00% (2×)
  Relative level of G: 1.1 and 0.852 and 0.9 and 1.6
Metabolite dATP (KEGG C00131)
  Glucose labeling of dATP: 100.00%
  Relative level of dATP: 0.6
Metabolite dCTP (KEGG C00458)
  Glucose labeling of dCTP: 100.00%
  Relative level of dCTP: 0.0
[19]
  Glucose labeling of dG: 0.38% and 0.48% and 0.49% and 0.0145% and 0.37% and 0.09%
  Relative level of dG: 1.7 (2×) and 1.1 (2×) and 6.1 and 1.0
Metabolite dGDP (KEGG C00361)
  Relative level of dGDP: 61.2
Metabolite dGDP (KEGG C00361), listed as V
  Glucose labeling of dGDP: 100.00% (5×) and 0.38%
[20]
  Glucose labeling of dTMP: 0.55% and 100.00% (4×) and 82.28%
  Relative level of dTMP: 0.7 and 6.1 and 3.9 and 1.9 and 0.6 and 0.453
Metabolite dTTP (KEGG C00459)
  Glucose labeling of dTTP: 100.00%
Metabolite dTTP (KEGG C00459), listed as V
  Relative level of dTTP: 0.47 and 0.4
  Glucose labeling, Leu/Ile: 0.00%
  Glucose labeling, NAD+: 0.00%
  Glucose labeling, P-Creatine: 0.0737%
  Glucose labeling, P-EtA: 0.0123%
  Glucose labeling, PEP: 100.00%
  Glucose labeling, Phe: 0.00%
  Glucose labeling, Pipecolate: 0.00%
  Glucose labeling, Pyr: 100.00%
  Glucose labeling, Sarc (C00213): 0.0369%
  Glucose labeling, Thr (C00188): 0.00%
  Glucose labeling, Trigonelline (C01004): 0.00%
